The results in this text go back to patent publication US6627749B1 (University of Iowa Research Foundation, priority 1999, dated 2003).

Converted amounts (≈) assume the structure as drawn.

Data set [1] is described as follows: Stability of CPT standard solutions (HPLC). It counts as physicochemical. Here is the method: The lactone and carboxylate forms of CPT were analyzed by HPLC using a fully-automated Shimadzu LC-10 system, equipped with a fluorescence detector, a Supelco's C-18 discovery column (15 cm×4.6 mm, 5 am Supelco Park, Bellefonte, Pa.) and a guard column. The detector was set at an excitation wavelength of 370 nm and an emission wavelength of 435 nm. The mobile phase consisted of a 73.27 (v/v) mixture of triethylamine-acetate buffer (0.1% triethylamine, adjusted with glacial acetic acid to pH 5.5) and acetonitrile. A flow rate of 1 ml/min and an injection volume of 20 μl were used in the analysis. To avoid carryover between successive injections, the injector was washed thoroughly with methanol. The standard solutions of CPT-lactone and CPT-carboxylate were made by dilution of the CPT stock solution in dimethylsulfoxide (DMSO) with 0.02M HC1 and 0.02M NaOH solutions, respectively. The analysis of the CPT-lactone was performed immediately, whereas that of CPT-carboxylate 30 min. after making the solution. Standard solutions of CPT-lactone and CPT-carboxylate were stable for two weeks at 4° C. and for 24 hours at room temperature.

Data set [2] has as its system human-derived lymphoid RPMI-8402 leukemia cells. As to the kind of experiment: Cytotoxicity, inhibition of DNA synthesis (3H-thymidine). Conditions: lymphoid RPMI-8402 cells. Format: cell-based. Here is the method:
(§1) The cytotoxicity of free CPT and OC—(COOH 20%)/CPT microspheres was evaluated against human-derived lymphoid RPMI-8402 (FIG. 7) and myeloid THP-1 leukemia cell lines (see FIG. 6). […] The cells were diluted to 1×10^6 cells/ml in RPMI 1640 media, supplemented with 1% pen/strep, 1% glutamine, and 10% fetal calf serum, and plated in triplicate at the 2×10^5 cells/well in a 96 well plate. CPT or OC—(COOH 20%)/CPT microspheres were then added, at the equal concentrations, to the wells and the cells were incubated for 20 hours at 37° C. and in 5% CO2. Radiolabeled thymidine (0.04 μci/well) was added to each well at 20 hours and 24 hours. The cells were harvested onto a Reeves Angel 934 AH filter using a Brandel automated cell harvester. Radiolabeled DNA was then measured as disintegration per minute (dpm) by scintillation spectroscopy.

The test system of data set [3] is human-derived myeloid THP-1 leukemia cells. Described as above. Format: cell-based. The following applies: myeloid THP-1 cells. On the procedure:
as §1

Data set [4] in a line: In-vitro dissolution of CPT in pH 7.4 phosphate buffer (dialysis bag). Format: physicochemical. Conditions: 0.02% Tween 80, 37° C., sink conditions. On the procedure: The dissolution of CPT from microspheres and physical mixtures and that of free CPT was evaluated in pH 7.4 phosphate buffer solution (composition: 137 mM NaCl, 3 mM KC1, 8 mM Na2HPO4, 1 mM KH2PO4), containing 0.02% Tween 80 at 37° C. under sink conditions. Briefly, an accurately weighed amount of microspheres was suspended in the buffer medium. The suspension was placed in a dialysis bag (MWCO […], Snakeskin™) and then dialyzed against the buffer solution. 1 ml of the release medium was removed at the predetermined time intervals. To maintain the sink condition, an equal volume of the fresh buffer solution was immediately added to the release medium. The concentrations of both lactone and carboxylate forms of CPT in the release media were determined by HPLC assay.

For `CCC(O)(C(=O)O)c1cc2n(c(=O)c1CO)Cc1cc3ccccc3nc1-2` (stereo not shown) [CPT-carboxylate], the figures for the “stability of standard solution” value in data set [1] (at 4° C.) and in data set [1] (at room temperature) were “two weeks” and 24 h, respectively.
The corresponding values for `CC[C@@]1(O)C(=O)OCc2c1cc1n(c2=O)Cc2cc3ccccc3nc2-1` [CPT-lactone] are “two weeks” and 24 h.
On to `CC[C@@]1(O)C(=O)OCc2c1cc1n(c2=O)Cc2cc3ccccc3nc2-1` [Free CPT, 20(S)-camptothecin], for which the results for the ED50 in data set [2] and in data set [3] were 0.025 µg/mL (≈ 0.0718 µM) and 0.75 µg/mL (≈ 2.15 µM), respectively. Besides, the “T-50 (hrs), dissolution of CPT” value in data set [4] turned out to be 118.6 h.
